Measured values from patent publication US8252822B2, “Heterocyclic compounds and uses as anticancer agents” (Acea Biosciences, Inc., priority 2007, dated 2012).

Key:
[1] = tested on: A549 cells; assay: RT-CES cell proliferation inhibition, A549; assay type: cell-based, Human
Excerpt: The biological activity of compounds disclosed herein was monitored and profiled using the Real-Time Cell Electronic Sensing (RT-CES®) system from ACEA Biosciences, Inc. The RT-CES system utilizes cell-substrate impedance technology to monitor cellular behavior inside tissue culture wells in a microtiter plate format. The technology features in the integration of molecular and cell biology with microelectronics and is based on the electronic detection of biological assay process. The details of this cell electronic sensing technology and associated devices, systems and methods of use as described in U.S. provisional application No. 60/379,749, filed on Jul. 20, 2002; U.S. provisional application No. 60/435,400, filed on Dec. 20, 2002; U.S. Provisional application 60/469,572, filed on May 9, 2003, PCT application number PCT/US03/22557, filed on Jul. 18, 2003; PCT application number PCT/US03/22537, filed on Jul. 18, 2003; U.S. patent application Ser. No. 10/705,447, filed on Nov. 10, 2003; U.S. patent application Ser. No. 10/705,615, filed on Nov. 10, 2003, each of which is incorporated by reference. Additional details of RT-CES technology is further disclosed in U.S. provisional application No. 60/519,567, filed on Nov. 12, 2003, and U.S. provisional application No. 60/542,927, filed on Feb. 9, 2004.
For measurement of cell-substrate or cell-electrode impedance using RT-CES technology, microelectrodes having appropriate geometries are fabricated onto the bottom surfaces of microtiter plate or similar device, facing into the wells. Cells are introduced into the wells of the devices, and make contact to and attach to the electrode surfaces. The presence, absence or change of properties of cells affects the electronic and ionic passage on the electrode sensor surfaces. Measuring the impedance between or among electrodes provides important information about biological status of cells present on the sensors. When there are changes to the biological status of the cells analogue electronic readout signals are measured automatically and in real time, and are converted to digital signals for processing and for analysis. In a RT-CES system, a cell index (arbitrary representation of change in impedance) is automatically derived and provided based on measured electrode impedance values. The cell index obtained for a given well reflects: 1) how many cells are attached to the electrode surfaces in this well; 2) how well cells are attached to the electrode surfaces in this well. Thus, the more the cells of same type in similar physiological conditions attach the electrode surfaces, the larger the cell index. And, the better the cells attach to the electrode surfaces (e.g., the cells spread-out more to have larger contact areas, or the cells attach tighter to electrode surfaces), the larger the cell index.
The RT-CES system comprises three components, an electronic sensor analyzer, a device station and 16× or 96× microtiter devices. Microelectrode sensor array was fabricated on glass slides with lithographical microfabrication methods and the electrode-containing slides are assembled to plastic trays to form electrode-containing wells. The device station receives the 16× or 96× microtiter plate devices and is capable of electronically switching any one of the wells to the sensor analyzer for impedance measurement. In operation, the devices with cells cultured in the wells are placed into a device station that is located inside an incubator. Electrical cables connect the device station to the sensor analyzer. Under the RT-CES software control, the sensor analyzer can automatically select wells to be measured and continuously conduct impedance measurements. The impedance data from the analyzer is transferred to a computer, analyzed and processed by the integrated software.
To quantify cell status based on the measured cell-electrode impedance, a parameter termed Cell Index is derived. […]

Row | melting point | Structure (SMILES) | response pattern of A549 cells compared with paclitaxel ([1]; 140 nM of compound vs 12.5 nM of paclitaxel) | response pattern of A549 cells compared with paclitaxel ([1]; 560 nM of compound vs 25 nM of paclitaxel) | concentration at or above which cell indices first decreased with time and then increased ([1]; A549, complex kinetic responses) | IC50 ([1]; Homo sapiens, A549, 24 hours after compound treatment, normalized Cell Index, read-out: IC50 (24 hr)) | inhibitory ability against the proliferation of A549 cells ([1]; various concentrations studied, time-dependent cell index)
1 | > 250 °C | Br.Cc1nc2sccn2c1-c1csc(Nc2ccc(Br)cc2)n1 |  |  |  |  | 
2 |  | Br.Cc1nc2sccn2c1-c1csc(Nc2ccc(Br)cc2)n1 [Compound 28, 2-(4-bromophenyl)amino-4-(6-methylimidazo[2,1-b]thiazol-5-yl)thiazole] | somewhat similar | somewhat similar | ≥ 0.14 µM | 86.4 nM | exhibited inhibitory ability against the proliferation of A549 cells
